Reference: ChEMBL document CHEMBL3137667, “[Drug-induced liver injury; fourteenth updated edition of the bibliographic database of liver injuries and related drugs]” (Gastroenterol Clin Biol, 2004)

Tests used:
[1] = Times to onset, minimal and maximal, observed in the indexed observations. [column 'DELAI' in source]; conditions: human
[2] = human
[3] = human; remark: listed apart in the source
[4] = human, serum
[5] = human; remark: listed apart in the source
[6] = human, serum, 4383 h
[7] = human; remark: listed apart in the source
[8] = Highest frequency of moderate liver toxicity observed during clinical trials, expressed as a percentage. [column '% BIOL' in source]; conditions: human
[9] = human, serum; remark: listed apart in the source
[10] = human; remark: listed apart in the source
[11] = Highest frequency of acute liver toxicity observed during clinical trials, expressed as a percentage. [column '% AIGUE' in source]; conditions: human
[12] = human; remark: listed apart in the source
[13] = human; remark: listed apart in the source
[14] = human; remark: listed apart in the source
[15] = human; remark: listed apart in the source
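Wherever Hepatotoxicity (association with vascular disease) is given: count of indexed literature references reporting vascular liver injury in humans, e.g. peliosis hepatitis, hepatic veno-occlusive disease or Budd-Chiari syndrome.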
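Wherever Hepatotoxicity (benign tumour) is given: value is a count of indexed literature references citing a benign tumour confirmed by histopathology.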
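Wherever Hepatotoxicity (choleostasis) is given: human cholestatic liver injury, shown by histopathology or by peak ALT or AST elevation over alkaline phosphatase ratio below 2, value counts indexed literature reports.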
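Wherever Hepatotoxicity (chronic liver disease) is given: chronic liver injury confirmed by histopathology or persistently raised serum aminotransferase activity beyond 6 months, value given as the count of indexed literature references.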
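Wherever Hepatotoxicity (cirrhosis) is given: value is a count of indexed literature references reporting cirrhosis confirmed by histopathology.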
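Wherever Hepatotoxicity (cytolytic) is given: human cytolytic liver injury, shown by histopathology or by a ratio above 5 of peak ALT or AST elevation to alkaline phosphatase elevation, value counts indexed references.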
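Wherever Hepatotoxicity (granulomatous hepatitis) is given: value is a count of indexed literature references reporting granulomatous liver disease confirmed by histopathology.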
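Wherever Hepatotoxicity (malignant tumour) is given: malignant tumour confirmed by histopathology, value gives the count of indexed literature references reporting it.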
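Wherever Hepatotoxicity (severe hepatitis) is given: human clinical data: severe hepatitis, meaning potentially life-threatening liver failure or clinically observed cases, the value counts how many indexed literature references report it.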
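Wherever Hepatotoxicity (steatosis) is given: steatosis confirmed by histopathology, value is the count of indexed references.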

Compound | Hepatotoxicity (time to onset) [1] | Hepatotoxicity (cytolytic) [2] | Hepatotoxicity (choleostasis) [3] | Hepatotoxicity (moderate) [4] | Hepatotoxicity (malignant tumour) [5] | Hepatotoxicity (chronic liver disease) [6] | Hepatotoxicity (steatosis) [7] | Hepatotoxicity (moderate) [8] [%] | Hepatotoxicity (acute) [9] | Hepatotoxicity (association with vascular disease) [10] | Hepatotoxicity (acute) [11] [%] | Hepatotoxicity (cirrhosis) [12] | Hepatotoxicity (severe hepatitis) [13] | Hepatotoxicity (benign tumour) [14] | Hepatotoxicity (granulomatous hepatitis) [15] | also measured
CN[C@H](CC(C)C)C(=O)N[C@H]1C(=O)N[C@@H](CC(N)=O)C(=O)N[C@H]2C(=O)N[C@H]3C(=O)N[C@H](C(=O)N[C@H](C(=O)O)c4cc(O)cc(O)c4-c4cc3ccc4O)[C@H](O)c3ccc(c(Cl)c3)Oc3cc2cc(c3O[C@@H]2O[C@H](CO)[C@@H](O)[C@H](O)[C@H]2O[C@H]2C[C@](C)(N)[C@H](O)[C@H](C)O2)Oc2ccc(cc2Cl)[C@H]1O [VANCOMYCIN] | 4 days | 1 | 0 | 9 | 0 | 0 | 0 | 50 | 1 | 0 | 0 | 0 | 0 | 0 | 0 | –
Nc1c2c(nc3ccccc13)CCCC2O (stereo not given) [VELNACRINE] | 4 weeks - 3 months | 2 | 0 | 8 | 0 | 0 | 0 | 35 | 2 | 0 | 7.3 | 0 | 0 | 0 | 0 | –
C=CC(N)CCC(=O)O (stereo not given) [VIGABATRIN] | 9 months | 2 | 0 | 3 | 0 | 0 | 0 | 13.3 | 2 | 0 | 0 | 0 | 1 | 0 | 0 | –
CCC1=C[C@@H]2CN(C1)Cc1c([nH]c3ccccc13)[C@@](C(=O)OC)(c1cc3c(cc1OC)N(C)[C@H]1[C@@](O)(C(=O)OC)[C@H](OC(C)=O)[C@]4(CC)C=CCN5CC[C@]31[C@@H]54)C2 [VINORELBINE] | 2 days - 10 days | 2 | 0 | 6 | 0 | 0 | 0 | 24.1 | 3 | 0 | 6 | 0 | 1 | 0 | 0 | –
CCOC(Nc1ccc(C(=O)O)cc1)C(=O)c1ccc(-c2ccccc2)cc1 (stereo not given) [XENAZOIC ACID] | 1 week - 2 weeks | 0 | 0 | 0 | 0 | 0 | 0 | 0 | 2 | 0 | 0 | 0 | 0 | 0 | 0 | –
Nc1ccn([C@H]2CC[C@@H](CO)O2)c(=O)n1 [ZALCITABINE] | 3 weeks - 10 months | – | – | 5 | 0 | 0 | 2 | – | 4 | 0 | – | 0 | – | 0 | – | Hepatotoxicity (cytolytic) ([2]; Liver): 3; Hepatotoxicity (choleostasis) ([3]; Liver): 0; Hepatotoxicity (moderate) ([8]; Liver): 14.9%; Hepatotoxicity (acute) ([11]; Liver): 8.5%; Hepatotoxicity (severe hepatitis) ([13]; Liver): 0; Hepatotoxicity (granulomatous hepatitis) ([15]; Liver): 0
CC(=O)N[C@H]1[C@H]([C@H](O)[C@H](O)CO)OC(C(=O)O)=C[C@@H]1N=C(N)N [ZANAMIVIR] | 8 days | 0 | 0 | 2 | 0 | 0 | 0 | 14.5 | 0 | 0 | 0 | 0 | 0 | 0 | 0 | –
CN1CCN(C(=O)OC2c3nccnc3C(=O)N2c2ccc(Cl)cn2)CC1 (stereo not given) [ZOPICLONE] | 6 months | 1 | 1 | 0 | 0 | 0 | 0 | 0 | 1 | 0 | 0 | 0 | 0 | 0 | 0 | –
COLESTIPOL | 6 months | 1 | 0 | 1 | 0 | 0 | 0 | 0.8 | 1 | 0 | 0 | 0 | 0 | 0 | 0 | –
DALTEPARIN SODIUM | 4 days | 0 | 0 | 3 | 0 | 0 | 0 | 2.6 | 0 | 0 | 0 | 0 | 0 | 0 | 0 | –
IVERMECTIN | 2 days - 1 week | 0 | 0 | 5 | 0 | 0 | 0 | 23.3 | 0 | 0 | 0 | 0 | 0 | 0 | 0 | –
MEGLUMINE ANTIMONATE | 6 hours - 6 days | 0 | 0 | 3 | 0 | 0 | 0 | 6 | 1 | 0 | 0 | 0 | 0 | 0 | 0 | –
MUROMONAB-CD3 | 1 days | 1 | 0 | 0 | 0 | 0 | 0 | 0 | 1 | 0 | 0 | 0 | 0 | 0 | 0 | –
SERRAPEPTASE | 2 days | 0 | 0 | 0 | 0 | 0 | 0 | 0 | 1 | 0 | 0 | 0 | 0 | 0 | 1 | –
SPIRAMYCIN | 1 day - 4 weeks | 0 | 3 | 0 | 0 | 0 | 0 | 0 | 4 | 0 | 0 | 0 | 0 | 0 | 0 | –
